In patent US9216204B2, “Bone targeted therapeutics and methods of making and using the same” (MBC Pharma, Inc., priority 1998, dated 2015):

Experiments:
[1] = Binding of bisphosphonate conjugates on hydroxyapatite powder (UV absorbency of supernatant); conditions: pH 7.0
Experimental: A. To estimate the binding of BC on hydroxyapatite (mineral component of a bone) UV spectra of BC in buffer pH 7 were recorded before and after treatment with hydroxyapatite. To this end 10 μl of hydroxyapatite suspension in water was added to 1 ml of ˜10^−4 M solution of a BC in 0.1M Tris-HCl buffer, pH 7.0, 0.15 M NaCl and the mixture was intensively shaken for 10 minutes, and centrifuged for 5 minutes at 10,000 rpm in a microcentrifuge. The supernatant was separated and an absorbency spectrum of the supernatant was recorded.

[2] = Mineral-binding ability by retention time on hydroxyapatite HPLC column; conditions: pH = 6.8, 2 mL/min
Experimental: B. […] The flow rate was 2 mL min^−1. […] Nucleoside mono-, di-, and triphosphates were recorded at a wavelength of 260 nm and zoledronate at a wavelength of 218 nm. The concentration of the eluted compounds was 0.3 mmol L^−1.

[3] = 1500 mM sodium phosphate buffer

Row | Retention time on hydroxyapatite column [2, 3] | Retention time on hydroxyapatite column ([2]; 500 mM sodium phosphate buffer) | SMILES | % of bound compound [1] | % of nonbound compound [1]
1 |  |  | O=c1[nH]c(=O)n(COCCOP(=O)(O)OP(=O)(O)CP(=O)(O)O)cc1F [II, Anhydride of 1-(2′-hydroxyethoxymethyl)-5-fluorouracil-2′-phosphate and methylenediphosphonic acid] | 87.26% | 12.74%
2 | 17.35 min |  | O=P(O)(O)C(O)(Cn1ccnc1)P(=O)(O)O [Zoledronate, zoledronate] |  | 
3 | 3.42 min | 4.25 min | O=c1ccn([C@@H]2O[C@H](COP(=O)(O)O)[C@@H](O)[C@H]2O)c(=O)[nH]1 [UMP] |  | 
4 | 3.5 min |  | O=c1ccn([C@@H]2O[C@H](COP(=O)(O)OP(=O)(O)OP(=O)(O)O)[C@@H](O)[C@H]2O)c(=O)[nH]1 [UTP] |  | 
5 | 3.47 min | 5.75 min | O=c1ccn([C@@H]2O[C@H](COP(=O)(O)OP(=O)(O)O)[C@@H](O)[C@H]2O)c(=O)[nH]1 [UDP] |  | 

Row | SMILES | Retention time on hydroxyapatite column [2, 3] | Retention time on hydroxyapatite column ([2]; 500 mM sodium phosphate buffer) | % of bound compound [1] | % of nonbound compound [1]
6 | CC(O)(P(=O)(O)O)P(=O)(O)OP(=O)(O)OCC1OC(n2cc(F)c(=O)[nH]c2=O)C(O)C1O (stereo not drawn) [VI, anhydride of 5-Fluoro-uridine-5′-monophosphoric acid and 1-Hydroxyethylidene-1,1-diphosphonic acid] | 6.00 min | 17.72 min | 69.66% | 30.34%
